# Measurements: patent publication US20110178105A1, “CLINICAL BENEFITS OF EICOSAPENTAENOIC ACID IN HUMANS” (E.I. DU PONT DE NEMOURS AND COMPANY, priority 2010, published 2011)
# Read-outs that look alike come from different tables or passages of the source.
# Assays:
# [1] = Clinical study in healthy subjects: body weight, BMI, blood pressure, pulse; type: in vivo, human; conditions: 6 weeks
# Procedure: The goal of this study was to test the safety and efficacy of an EPA-enriched oil (as described in Examples 1-3; E.I. duPont de Nemours & Co., Inc. Applied Biosciences, Wilmington, Del.), to corroborate the safety of a novel oil rich in EPA in humans prior to this product being placed on the market as a dietary supplement. This oil was tested at doses of 600 mg and 1800 mg of EPA/day as compared […] parallel arm design in approximately 120 healthy adults studied in both the fasting and post-prandial state. Safety was monitored by assessing for adverse reactions, measuring vital signs and a variety of laboratory tests including a complete metabolic profile, thyroid function tests, complete blood count, and prothrombin time.
# The objective was to carry out a double blinded, randomized, placebo-controlled trial in 120 healthy subjects between 20-70 years of age over a 6 week period comparing the effects of an EPA-enriched oil provided at daily […] Specific parameters investigated included changes in body weight, heart rate, blood pressure, complete blood count, comprehensive metabolic profile, lipid and lipoprotein measures in the fasted and fed state, fatty acid profiles, and inflammation markers.
# At all visits the following information was recorded: weight in pounds and kilograms, height in centimeters [“cm”] and inches, waist circumference in cm and inches, resting heart rate, systolic blood pressure, diastolic blood pressure, and a brief dietary assessment to assure continued lack of high fish intake and/or flax seed or fish oil dietary supplements. Blood pressure and pulse measurements were done 3 times on each visit after the subjects had been sitting quietly for 5 minutes.
# At the time of the enrollment visit all subjects were randomly allocated into a protocol where they were required to take two capsules three times daily which contained a either: 1) olive oil placebo; 2) 600 mg/day of EPA/day; 3) 1800 mg of EPA/day; and, […]). The EPA oils are notable for their low levels of saturated fatty acids, particularly with regard to the DHA oil. Specifically, the composition of the DHA oil was as follows (g fatty acid per 100 g of oil): 14.1 g myristic acid (14:0), 10.8 g palmitic acid (16:0), 2 g palmitoleic acid (16.1), 7.4 g margaric acid (17:0), 8.4 g oleic acid (18:1), 0.1 g EPA (20:5n3), 0.9 g DPA (22:5n6) and 37.9 g DHA (22:6n3).
# At visit 2, subjects were again asked to fast for 12 hours, and information about subject characteristics including all vital signs, recent illness or hospitalization, medication and supplement use, and diet information was again obtained. […] At one week and three weeks after beginning the supplements, all study subjects were contacted by telephone and asked about any adverse effects and about their compliance, and the information on their calendars with regard to capsule use and fish intake. They were also asked about whether they had experienced any fishy aftertaste or odor, and if so, how frequent were these episodes, and how unpleasant were they? The entire process as listed above was repeated after study subjects were on the study capsules for 6 weeks at the time of the final visit. Compliance and adverse events were assessed by telephone at weeks 1 and 3 by telephone and at week 6 by questionnaire and capsule count. Over 42 days, subjects were expected to have consumed a total of 252 capsules. Compliance was calculated as a percentage of consumed capsule count/expected capsule count based on the number of days the subject was in the study. All subjects were asked to stay on their capsules until they come in for their final visit. Compliance in all participants who completed the study was based on capsule count was in excess of 85%, mean 96%.
# Statistical analyses compared mean absolute and percentage changes from baseline and 6 weeks in the active groups versus the placebo group. Analysis of variance, as well as paired t-test analysis were performed with SYSTAT software. […]
# [2] = design: reduction of events / relative risk reduction in stroke / reduction of risk of subsequent CHD events / relative risk reduction of major cardiovascular events: concentration or dose not given beside the values; conditions: cited from earlier work
# [3] = doses of approximately 1200 mg/day; cited from earlier work
# [4] = rat; DHA TG supplementation; cited from earlier work
# [5] = EPA 1800 mg/day plus statin group (9,326), 4.6 years of follow-up
smiles,measurement,setting,value
"CCC=CCC=CCC=CCC=CC/C=C\CCCC(=O)O [EPA, cis-5,8, 11, 14, 17-eicosapentaenoic acid]","BMI, 6-Week Change (%)",[1]; EPA 600 mg (n = 27),+0.2 ± 2.3%
same,"BMI, Final",[1]; EPA 600 mg (n = 27),27.4 ± 3.1 kg/m^2
same,"Diastolic BP, Final",[1]; EPA 600 mg (n = 27),80.0 ± 7.9 mm
same,"Pulse, 6-Week Change (%)",[1]; EPA 600 mg (n = 27),+2.1 ± 13.6%
same,"Pulse, Final",[1]; EPA 600 mg (n = 27),74.7 ± 12.0 beats/min
same,"Systolic BP, 6-Week Change (%)",[1]; EPA 600 mg (n = 27),+3.0 ± 10.4%
same,"Systolic BP, Final",[1]; EPA 600 mg (n = 27),121.1 ± 12.2 mm Hg
same,"Weight, 6-Week Change (%)",[1]; EPA 600 mg (n = 27),+0.2 ± 2.1%
same,"Weight, Final",[1]; EPA 600 mg (n = 27),80.4 ± 10.9 kg
same,"BMI, 6-Week Change (%)",[1]; EPA 1800 mg (n = 29),+1.1 ± 5.1%
same,"BMI, Final",[1]; EPA 1800 mg (n = 29),27.9 ± 5. kg/m2
same,"Diastolic BP, 6-Week Change (%)",[1]; EPA 1800 mg (n = 29),+1.4 ± 9.1%
same,"Diastolic BP, Final",[1]; EPA 1800 mg (n = 29),77.4 ± 9.0 mm
same,"Pulse, 6-Week Change (%)",[1]; EPA 1800 mg (n = 29),+2.7 ± 8.6%
same,"Pulse, Final",[1]; EPA 1800 mg (n = 29),70.9 ± 8.5 beats/min
same,"Systolic BP, 6-Week Change (%)",[1]; EPA 1800 mg (n = 29),+1.0 ± 7.4%
same,"Systolic BP, Final",[1]; EPA 1800 mg (n = 29),119.9 ± 13.4 mm Hg
same,"Weight, 6-Week Change (%)",[1]; EPA 1800 mg (n = 29),+1.3 ± 4.6%
same,"Weight, Final",[1]; EPA 1800 mg (n = 29),81.6 ± 19.2 kg
same,triglyceride lowering,[2]; 1800 mg/day of EPA,no significant effect
same,reduction of risk of subsequent CHD events,"[2]; 1,050 subjects with prior myocardial infarction, EPA plus statin, p=0.033",27%
same,decrease in cardiovascular events,[2]; >98% purified EPA-ethyl esters plus statin versus statin alone,19%
same,major cardiovascular event rate,[2]; [5],2.8%
same,major cardiovascular events observed,[2]; [5],262 events
same,sudden death rates between the groups,[2]; EPA plus statin versus statin-only,No significant differences
same,relative risk reduction of major cardiovascular events,"[2]; EPA plus statin versus statin-only, p=0.011",19%
same,effects on lipid levels,[2]; EPA plus statin,not associated with any significant effects
same,reduction in stroke,"[2]; entire cohort, EPA plus statin",not associated with a significant reduction
same,stroke rate,"[2]; entire cohort, EPA plus statin",1.3%
same,risk reduction,"[2]; impaired glucose tolerance (fasting glucose >110 mg/dl), EPA plus statin, p=0.048",22%
same,risk reduction,"[2]; normal glucose group, EPA plus statin, not significant",18%
same,reduction of events,"[2]; patients with a history of prior CHD, EPA plus statin versus statin-only, p=0.048",19%
same,event rate,"[2]; patients with a history of prior CHD, EPA plus statin",8.7%
same,number needed to treat,[2]; patients with a history of prior CHD,49
same,rate of subsequent CHD events,"[2]; subjects with prior myocardial infarction, EPA plus statin",15.0%
same,number needed to treat to prevent one event,[2]; subjects with prior myocardial infarction,19
same,stroke rate,"[2]; subjects with prior stroke, EPA plus statin",6.8%
same,relative risk reduction in stroke,"[2]; subjects with prior stroke, EPA plus statin, p<0.05",20%
same,event rate,"[2]; subjects without CHD, EPA plus statin",1.4%
same,risk reduction,"[2]; subjects without CHD, p 0.132 (not significant)",18%
same,reduction of CHD events,"[2]; triglyceride >150 mg/dl and HDL cholesterol <40 mg/dl, EPA plus statin, p=0.043",53%
"CCC=CCC=CCC=CCC=CCC=CC/C=C\CCC(=O)O [DHA, cis-4,7, 10, 13, 16, 19-docosahexaenoic acid, reference compound]",lowering of triglyceride levels,[3],about 25%
same,"plasma and erythrocyte DHA content, DHA TG versus DHA EE",[4],higher
